Values of other authors, collected in US20250099385A1, “Extended Release Boswellic Acid and Manufacturing Thereof” (Lonza Greenwood LLC, priority 2022, published 2025).
Entries after “also recorded” stand apart in the source; their conditions may differ.

Tests used:
[1] = not given; remark: listed apart in the source
[2] = molecular target: T1, 5-lipoxygenase (Homo sapiens, UniProt P09917)
T1 sequence (P09917 1-674): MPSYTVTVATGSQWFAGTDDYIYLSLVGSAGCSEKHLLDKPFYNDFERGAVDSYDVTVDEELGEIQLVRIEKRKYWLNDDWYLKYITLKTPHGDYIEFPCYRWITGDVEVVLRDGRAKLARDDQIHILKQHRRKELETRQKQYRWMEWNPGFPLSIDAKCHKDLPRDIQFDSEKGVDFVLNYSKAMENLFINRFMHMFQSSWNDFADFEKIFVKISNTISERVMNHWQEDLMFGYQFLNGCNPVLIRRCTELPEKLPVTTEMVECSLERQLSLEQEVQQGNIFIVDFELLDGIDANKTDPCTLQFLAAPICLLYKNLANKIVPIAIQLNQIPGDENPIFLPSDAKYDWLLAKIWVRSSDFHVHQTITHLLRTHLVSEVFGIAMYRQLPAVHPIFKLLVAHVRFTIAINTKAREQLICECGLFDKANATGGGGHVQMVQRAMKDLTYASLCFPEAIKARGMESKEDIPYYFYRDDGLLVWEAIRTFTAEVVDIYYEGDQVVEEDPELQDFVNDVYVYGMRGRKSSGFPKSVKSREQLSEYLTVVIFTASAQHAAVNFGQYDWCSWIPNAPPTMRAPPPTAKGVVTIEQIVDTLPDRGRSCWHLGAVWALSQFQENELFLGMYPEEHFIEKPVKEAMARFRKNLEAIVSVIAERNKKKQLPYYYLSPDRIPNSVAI

Substance: 3-O-acetyl-11-keto-.beta.-boswellic acid [AKBA]
- time at which AKBA levels in the blood peak (after oral consumption): ~3 h
- AKBA levels in the blood beyond 10 hours (beyond 10 hours from oral consumption): nearly zero concentration; also recorded: almost zero concentrations
- bioavailability (in vivo): poorly bioavailable
- water solubility [1]: highly water-insoluble
- 5-lipoxygenase inhibition, rank among the boswellic acids [2]: most potent inhibitor
